In the NIST ThermoML archive (doi:10.1021/je0497496):
Values joined by “and” are separate entries in the source; they are usually repeats but may differ in a detail not shown here. Equal entries are not always repeated.

Conditions: for mass density: buoyancy; for vapor or sublimation pressure: Closed cell (Static) method

O=C=O [carbon dioxide]
Fluid (supercritical or subcritical phases)
Conditions	mass density
233.06 K, 500.05 kPa	12.0703 kg/m3
233.06 K, 799.98 kPa	20.1488 kg/m3
233.07 K, 105.91 kPa	2.43371 kg/m3 and 2.42701 kg/m3
233.07 K, 300.07 kPa	7.05798 kg/m3
243 K, 1000.7 kPa	24.4253 kg/m3
243.01 K, 300.03 kPa	6.73594 kg/m3
243.01 K, 500.04 kPa	11.476 kg/m3
243.01 K, 800 kPa	19.0248 kg/m3
243.01 K, 1200.7 kPa	30.1422 kg/m3
243.02 K, 100.02 kPa	2.20055 kg/m3
253.21 K, 500.06 kPa	10.9367 kg/m3
253.21 K, 1500.7 kPa	36.7146 kg/m3
253.22 K, 100.07 kPa	2.116 kg/m3
253.22 K, 100.08 kPa	2.11111 kg/m3
253.22 K, 1000.1 kPa	23.0281 kg/m3
253.22 K, 1800.9 kPa	45.9785 kg/m3
263.31 K, 1000.6 kPa	21.8592 kg/m3
263.32 K, 500.07 kPa	10.4541 kg/m3
263.32 K, 1500.1 kPa	34.4562 kg/m3
263.32 K, 2000.2 kPa	48.7144 kg/m3
263.32 K, 2200.2 kPa	55.0401 kg/m3
263.32 K, 2500 kPa	65.4007 kg/m3
263.33 K, 100.03 kPa	2.02538 kg/m3
273.56 K, 100.01 kPa	1.94808 kg/m3
273.56 K, 100.02 kPa	1.95635 kg/m3
273.56 K, 500.01 kPa	10.0139 kg/m3
273.56 K, 1000 kPa	20.7952 kg/m3
273.56 K, 2000.3 kPa	45.5031 kg/m3
273.56 K, 2500.6 kPa	60.111 kg/m3
273.56 K, 3000 kPa	77.0441 kg/m3
273.56 K, 3200.5 kPa	84.7746 kg/m3
273.56 K, 3401.2 kPa	93.2811 kg/m3
283.51 K, 3000.3 kPa	70.8325 kg/m3
283.51 K, 4000.8 kPa	107.963 kg/m3
283.52 K, 100.06 kPa	1.8788 kg/m3
283.52 K, 999.98 kPa	19.8874 kg/m3
283.52 K, 2000 kPa	42.914 kg/m3
283.52 K, 4200.9 kPa	117.472 kg/m3
293.08 K, 100.15 kPa	1.81243 kg/m3
293.08 K, 100.16 kPa	1.8183 kg/m3
293.08 K, 2000 kPa	40.7832 kg/m3
293.08 K, 3000.4 kPa	66.2045 kg/m3
293.08 K, 4000.2 kPa	97.5691 kg/m3
293.08 K, 5000.2 kPa	140.798 kg/m3
293.08 K, 5501.3 kPa	173.325 kg/m3
293.09 K, 1000.2 kPa	19.1053 kg/m3

Liquid
Conditions	mass density	vapor or sublimation pressure
233.07 K	1116.54 kg/m3 and 1116.44 kg/m3	1000.7 kPa and 1000.8 kPa
243.01 K	1076.52 kg/m3	1420.4 kPa and 1420.5 kPa
253.22 K	1031.59 kg/m3 and 1031.49 kg/m3	1974.2 kPa and 1974.5 kPa
263.31 K	981.93 kg/m3	2661.6 kPa
263.32 K	981.93 kg/m3	2661.9 kPa
273.55 K	924.89 kg/m3	3522.1 kPa
273.56 K	924.87 kg/m3	3522.4 kPa
283.51 K	858.57 kg/m3	4543.2 kPa
283.52 K	858.55 kg/m3	4543.6 kPa
293.08 K	774.28 kg/m3	5720.9 kPa
293.09 K	774.23 kg/m3	5721.4 kPa

N#N [nitrogen]
Fluid (supercritical or subcritical phases)
Conditions	mass density [kg/m3]
233.02 K, 506.32 kPa	7.36302
233.02 K, 1007.1 kPa	14.7253
233.02 K, 2000.9 kPa	29.5563
233.02 K, 3001.4 kPa	44.779
233.02 K, 5030.2 kPa	76.3292
233.02 K, 5501 kPa	83.7756
233.03 K, 506.34 kPa	7.36678
233.03 K, 4002.6 kPa	60.2496
253.36 K, 3010.1 kPa	40.8167
253.36 K, 5651.9 kPa	77.5333
253.37 K, 158.12 kPa	2.1053
253.37 K, 1025.2 kPa	13.7338
253.37 K, 5051.9 kPa	69.1481
253.38 K, 158.09 kPa	2.10982
253.38 K, 2061.7 kPa	27.8018
253.38 K, 4007.1 kPa	54.5977
273.05 K, 1000.4 kPa	12.3984
273.06 K, 500.06 kPa	6.18643
273.06 K, 500.07 kPa	6.19019
273.06 K, 500.09 kPa	6.18538
273.06 K, 2000 kPa	24.878
273.06 K, 3000.1 kPa	37.4313
273.06 K, 4000 kPa	50.0451
273.06 K, 5000.4 kPa	62.6679
273.06 K, 5500 kPa	68.9746
293.02 K, 5015.1 kPa	58.0251
293.03 K, 109.97 kPa	1.26716
293.03 K, 1037 kPa	11.9492
293.03 K, 2014 kPa	23.2508
293.03 K, 3106.2 kPa	35.9063
293.03 K, 3996.5 kPa	46.2267
293.03 K, 5611.3 kPa	64.8959
293.04 K, 109.35 kPa	1.25784
313.12 K, 508.1 kPa	5.46882
313.12 K, 508.11 kPa	5.46814
313.12 K, 1000.3 kPa	10.7709
313.12 K, 1999.8 kPa	21.5387
313.12 K, 3999.9 kPa	43.0379
313.12 K, 5000.1 kPa	53.7535
313.13 K, 2999.7 kPa	32.2955
313.13 K, 5500 kPa	59.0903
333.12 K, 147.29 kPa	1.48909
333.12 K, 147.34 kPa	1.48309
333.12 K, 1049 kPa	10.6026
333.12 K, 2020.6 kPa	20.4085
333.12 K, 3039 kPa	30.6553
333.12 K, 4001.5 kPa	40.3032
333.12 K, 5029.1 kPa	50.5504
333.12 K, 5511.3 kPa	55.3242
353.31 K, 500.05 kPa	4.76148
353.31 K, 500.09 kPa	4.76373
353.31 K, 1001.8 kPa	9.53854
353.31 K, 4000.7 kPa	37.8636
353.32 K, 500.08 kPa	4.76448
353.32 K, 2000 kPa	19.0116
353.32 K, 3001.8 kPa	28.4762
353.32 K, 4999.9 kPa	47.189
353.32 K, 5500 kPa	51.8318

O [water]
Liquid
Conditions	mass density
273.62 K, 105.71 kPa	999.859 kg/m3
273.62 K, 1225.7 kPa	1000.42 kg/m3
273.63 K, 105.71 kPa	999.82 kg/m3
273.63 K, 2307.2 kPa	1001.02 kg/m3
273.63 K, 3781.6 kPa	1001.68 kg/m3
273.63 K, 4990.1 kPa	1002.27 kg/m3
292.94 K, 1063.5 kPa	998.673 kg/m3
292.94 K, 2097.6 kPa	999.18 kg/m3
292.94 K, 3109.3 kPa	999.633 kg/m3
292.94 K, 4139.9 kPa	1000.06 kg/m3 and 1000.08 kg/m3
292.95 K, 109.3 kPa	998.268 kg/m3
302.91 K, 110.01 kPa	995.77 kg/m3
302.91 K, 2049.8 kPa	996.571 kg/m3
302.91 K, 4030.1 kPa	997.451 kg/m3
302.92 K, 1005.9 kPa	996.106 kg/m3
312.96 K, 345.05 kPa	992.42 kg/m3
312.96 K, 1195.1 kPa	992.749 kg/m3
312.96 K, 2093.1 kPa	993.139 kg/m3
312.96 K, 3064.5 kPa	993.609 kg/m3
312.96 K, 4141.2 kPa	994.071 kg/m3
